Data: article PMC7297445, “Pharmacokinetic/Pharmacodynamic Determination and Preclinical Pharmacokinetics of the β-Lactamase Inhibitor ETX1317 and Its Orally Available Prodrug ETX0282” (ACS Infectious Diseases, 2020)
Entries after “also recorded” stand apart in the source; their conditions may differ.

Key:
[1] = tested on: K. pneumoniae ARC4488; test: Murine neutropenic thigh infection model; type: in vivo, mouse; conditions: 50 mg/kg p.o./q6h
Experimental: (§1) In vivo neutropenic infection models in the mouse were conducted as previously described.[48],[49] All procedures were performed to Entasis approved IACUC policies and guidelines as well as OLAW standards. Briefly, Female CD-1 mice (20–22 g, Charles River Laboratories) were acclimated for 5 days prior to start of study. Animals were housed 3 per cage with free access to food and water. Mice were rendered neutropenic via two doses of cyclophosphamide on days −4 and −1 with 150 mg/kg and 100 mg/kg delivered intraperitoneally in a dose volume of 10 mL/kg, respectively.[48]
(§2) Enterobacteriaceae isolates ARC2687, ARC4488, ARC5118, NMC101, and ARC4419 were prepared for infection from an overnight plate culture. A portion of the plate was resuspended in sterile saline and adjusted to an OD of 0.1 at 625 nm. The adjusted bacterial suspension was further diluted to target an infecting inoculum of approximately 5.0 × 10^6–1.0 × 10^7 CFU/mouse. The actual inoculum size varied between 5.5 × 10^6–1.6 × 10^6 CFU/thigh and administered via intramuscular injection of (100 μL). Plate counts of the inoculum were performed to confirm inoculum concentration and treatment was initiated 2 h after bacterial challenge.
(§3) ETX0282 and CPDP were formulated in 0.5% HPMC/0.1% Tween 80 suspension. meropenem (utilized as a positive control) was solubilized in water for injection. All studies utilized a meropenem dosed at 600 mg/kg q6h subcutaneously as positive control against meropenem sensitive isolates (MIC ≤ 2 μg/mL) and as a negative control against meropenem resistant isolates. For dose arms utilizing a combination of ETX0282 and CPDP, both agents were reconstituted in the same vehicle. All dose concentrations were adjusted to deliver targeted mg/kg doses within a dose volume of 10 mL/kg. Formulation potency was verified by LC/MS/MS.
(§4) ETX0282 and CPDP were administered via q6h dose intervals in order to achieve targeted unbound exposures. At 24 h post initiation of therapy, animals were euthanized, tissue samples aseptically collected and homogenized. Bacterial colony enumeration of tissue homogenate was performed by serial dilution on TSA plates which were incubated overnight at 35 °C prior to colony (CFU) counting.

[2] = tested on: E. coli ARC2687; test: Murine neutropenic thigh infection model; type: in vivo, mouse
Experimental: as §1, §2, §3, §4

[3] = tested on: K. pneumoniae ARC5118; test: Murine neutropenic thigh infection model; type: in vivo, mouse; conditions: 50 mg/kg p.o./q6h
Experimental: as §1, §2, §3, §4

[4] = Mouse oral pharmacokinetics (satellite infected animals); type: in vivo; conditions: after oral administration in mice
[5] = tested on: E. coli NMC101; test: Murine neutropenic thigh infection model; type: in vivo, mouse
Experimental: (§5) To further understand whether this in vitro activity translated to in vivo efficacy, an additional neutropenic thigh study was conducted in mice with increasing doses of ETX0282 alone vs E. coli NMC101 (ETX1317 MICBLI = 1 μg/mL) and ARC4419 (ETX1317 MICBLI = 0.25 μg/mL). […] Despite the significant exposure of ETX1317, a 200 mg/kg q6h dose of ETX0282 alone was ineffective for both strains (Table 6).
as §1, §2, §3, §4

[6] = tested on: E. coli ARC4419; test: Murine neutropenic thigh infection model; type: in vivo, mouse
Experimental: as §5, §1, §2, §3, §4

[7] = tested on: E. coli strain (ATCC 25922); test: Murine neutropenic thigh model, CPDP dose range study; type: in vivo, mouse; conditions: 50 mg/kg oral q6h, administered alone
Text: All in vivo efficacy studies were supported with PK of ETX1317 and CPD following oral administration of ETX0282 and CPDP. For the purposes of understanding the exposure-PD response relationship, total systemic concentrations of ETX1317 and cefpodoxime were normalized to unbound drug levels after accounting for protein binding with percent unbound estimates of 93% and 66%, respectively, in mouse plasma (Table S2). An in vivo dose range study with CPDP administered alone against a susceptible E. coli strain (ATCC 25922, CPD MIC = 0.5 μg/mL) was completed initially in a murine neutropenic thigh model to confirm its PK/PD target. In this study a 50 mg/kg oral dose of CPDP administered q6h was consistent with achieving 1–log kill over 24 h. […] Oral exposure was generally dose proportional to 50 mg/kg; however, it became less than dose proportional at ≥200 mg/kg.
as §1, with “Mice were rendered neutropenic via two doses of cyclophosphamide on days −4 and −1 with 150 mg/kg and 100 mg/kg delivered intraperitoneally in a dose volume of 10 mL/kg, respectively.[48]” left out

[8] = Low-dose oral PK of ETX0282 across rats, dogs and monkeys; type: in vivo; conditions: oral 1 to 10 mg/kg
Experimental: Intravenous and oral pharmacokinetics of ETX1317 and ETX0282 in preclinical species are summarized in Table 7 and Table S1, respectively. Time vs concentration profiles are depicted graphically in Figure S1.
(§6) Based upon the non-clinical PK data, a range of 60–80% bioavailability and a moderate absorption rate of 0.5–1.0 h^–1 have been considered for humans. In consideration of these predicted parameters, mean percent fT > CT of 1 μg/mL (2× MIC of 0.5 μg/mL) estimates for a 500 mg ETX1317 equiv q12h dose of ETX0282 are summarized in Table S3.
Intravenous pharmacokinetics of ETX1317 investigated in jugular vein cannulated male Sprague–Dawley rats (Charles River Laboratories, n = 3/route) at a dose of 10 mg/kg formulated in 0.9% saline. Oral pharmacokinetics of ETX0282 was evaluated at a 10 mg/kg equivalent dose of ETX1317 formulated in 25:75 PEG 400:WFI. The pH of each formulation was verified to fall within a range of 4–7 and were confirmed to be in solution prior to dosing. Potency was verified by LC/MS/MS. Dose volumes were 5 and 10 mL/kg for ETX1317(i.v.) and ETX0282(p.o.), respectively for rats. In both dog (male, 3/route) and monkey (male, 3/route) studies, i.v. and p.o. doses were formulated on 25:75 PEG 400:WFI (pH ∼5) and administered at a dose of ∼1 mg/kg. Dose volume was 1 mL/kg for both routes in dogs and monkeys with the i.v. dose infused over 15 min. […]

[9] = Human PK prediction (allometric scaling); conditions: based upon non-clinical PK data
Text: The methodology utilized for prediction of human PK of ETX1317 was consistent with methods used in support of similar chemotypes such as avibactam and ETX2514.[43] Human predictions for volume of distribution (Vd,ss) and clearance (CL) were within 2-fold of observed mean data obtained in Phase 1 studies, with renal clearance as the predominant clearance mechanism.[44],[45] Pharmacokinetic and excretion data from rats, dogs, and monkeys were used collectively for the projection of ETX1317 PK. Liver S9 incubations were also performed across all species (including human) to confirm consistent conversion of ETX0282 to ETX1317 at projected dose levels of ETX0282.[42] Human PK prediction of ETX1317 was completed using single species allometry for volume of distribution from dog PK and dog and monkey single species scaling using liver blood flow to predict non-renal clearance (CLNR).[46] […] While urinary excretion of ETX1317 was lower in dogs relative to monkeys and rats, human renal clearance (CLR) was predicted using dog-human renal correlation,[47] as this method has been highly predictive for compounds that are generally eliminated via renal excretion. The elimination half-life was estimated based upon the combined use of predicted parameters for clearance and volume of distribution, where T1/2 = ln 2*Vd,ss/CLtotal. Allometric scaling predicted human Vd,ss of 0.35 L/kg.
as §6

[10] = parameters: method as in PMID 32658473; conditions: across all species, including humans; cited from earlier work
[11] = parameters: method as in PMID 9950279; conditions: oral; PEPT1 substrate; cited from earlier work
[12] = ETX0282 alone 200 mg/kg q6h, combination 50:50 mg/kg q6h

In the case of COCC1=C(C(=O)OC(C)OC(=O)OC(C)C)N2C(=O)[C@@H](NC(=O)/C(=N\OC)c3csc(N)n3)[C@H]2SC1 (stereo partly shown) [CPDP, cefpodoxime proxetil], the “log10 CFU/g thigh change 24 h post therapy initiation” value [1] is reported as “+3.58 log10 CFU/g”, the “log10 CFU/g thigh change 24 h post therapy initiation” value ([2]; 50 mg/kg p.o./q6h) is reported as “+3.61 log10 CFU/g” and the “log10 CFU/g thigh change 24 h post therapy initiation” value [3] is reported as “+2.66 log10 CFU/g”. The “systemic concentrations of intact prodrug” value [4] was “No concentrations of intact CPDP and ETX0282 were observed systemically”, the “log10 CFU/g thigh change 24 h post therapy initiation” value ([5]; 50 mg/kg p.o./q6h) was “+3.39 log10 CFU/g” and the “log10 CFU/g thigh change 24 h post therapy initiation” value ([6]; 50 mg/kg p.o./q6h) was “+2.23 log10 CFU/g”. For the same compound, the “efficacy over 24 h” value [7] was 1–log kill.

For CC1=C[C@@H](C(N)=O)N2C[C@@H]1N(O[C@H](F)C(=O)OC(C)C)C2=O [ETX0282], the “circulating levels of intact prodrug” value [8] was “minimal to no levels of ETX0282”, the “log10 CFU/g thigh change 24 h post therapy initiation” value ([2]; 10 mg/kg p.o./q6h (footnote c)) was “+2.93 ^c log10 CFU/g” and the “log10 CFU/g thigh change 24 h post therapy initiation” value [3] was “+1.31 log10 CFU/g”. For the same compound, the “absorption rate considered for humans” value [9] was 0.5–1.0 h^–1, the “conversion of ETX0282 to ETX1317 in liver S9” value [10] was “efficient conversion; also recorded: Extensive and quantitative conversion” and the “systemic concentrations of intact prodrug” value [4] was “No concentrations of intact CPDP and ETX0282 were observed systemically”. The “log10 CFU/g thigh change 24 h post therapy initiation” value ([5]; 10 mg/kg p.o./q6h) was “+2.10 log10 CFU/g”, the “log10 CFU/g thigh change 24 h post therapy initiation” value ([5]; 50 mg/kg p.o./q6h) was “+1.83 log10 CFU/g” and the “log10 CFU/g thigh change 24 h post therapy initiation” value ([5]; 200 mg/kg p.o./q6h) was “+1.39 log10 CFU/g”. The “in vivo efficacy in words” value [5, 12] was “ineffective”, the “log10 CFU/g thigh change 24 h post therapy initiation” value ([6]; 10 mg/kg p.o./q6h) was “+1.41 log10 CFU/g” and the “log10 CFU/g thigh change 24 h post therapy initiation” value ([6]; 50 mg/kg p.o./q6h) was “+1.06 log10 CFU/g”. The “log10 CFU/g thigh change 24 h post therapy initiation” value ([6]; 200 mg/kg p.o./q6h) was “+1.07 log10 CFU/g” and the “in vivo efficacy in words” value [6, 12] was “ineffective”.

In the case of CC1(C)S[C@@H]2[C@H](NC(=O)[C@H](N)c3ccc(O)cc3)C(=O)N2[C@H]1C(=O)O [amoxicillin], the bioavailability [11] is listed as > 70%.
